What was measured:
mouse PPARγ [1] = target: T1, mouse PPARγ (Mus musculus, UniProt P37238); assay: PPARγ radioligand binding assay (GST-PPARγ-LBD fusion protein, scintillation proximity); settings: SPA
T1 sequence (P37238 204-505): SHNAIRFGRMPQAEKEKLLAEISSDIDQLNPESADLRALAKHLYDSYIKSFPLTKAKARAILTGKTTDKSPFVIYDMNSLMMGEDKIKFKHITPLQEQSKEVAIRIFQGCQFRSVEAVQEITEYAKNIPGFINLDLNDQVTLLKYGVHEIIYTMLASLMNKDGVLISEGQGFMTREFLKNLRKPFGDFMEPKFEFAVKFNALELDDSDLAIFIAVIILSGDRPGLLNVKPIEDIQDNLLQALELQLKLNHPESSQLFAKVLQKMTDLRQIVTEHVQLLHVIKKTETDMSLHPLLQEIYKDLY
Description: (§1) Full-length cDNA clones for human PPARα and mouse PPARγ were obtained by RT-PCR from human adipose and mouse liver cRNA, respectively, cloned into plasmid vectors and verified by DNA sequencing. […] To accomplish this, the portions of the cloned sequences encoding the LBDs were amplified from the full-length clones by PCR and then subcloned into the plasmid vectors. Final clones were verified by DNA sequence analysis.
(§2) Induction, expression, and purification of GST-LBD fusion proteins were performed in E. coli strain BL21(pLysS) cells by standard methods (Ref: Current Protocols in Molecular Biology, Wiley Press, edited by Ausubel et al.).
(§3) Radioligand Binding Assay
(§4) PPARγ receptor binding was assayed in TKE50 (50 mM Tris-HCl, pH 8, 50 mM KCl, […], 0.1 mg/ml fatty acid-free […] and 10 mM DTT). For each 96 well reaction an 140 ng equivalent of GST-PPARγ-LBD fusion protein was bound to 10 ug SPA beads (PharmaciaAmersham) in a final volume of 50 ul by shaking. The resulting slurry was incubated for 1 h at RT and centrifuged for 2 min at 1300 g. The supernatant containing unbound protein was removed and the semidry pellet containing the recptor-coated beads was resolved in 50 ul of TKE. For radioligand binding e.g. 10000 dpm 2(S)-(2-benzoyl-phenylamino)-3-{4-[1, 1-ditritio-2-(5-methyl-2-phenyl-oxazol-4-yl)-ethoxy]-phenyl}-propionic acid in 50 ul were added, the reaction incubated at RT for 1h and scintillation proximity counting performed. All binding assays were performed in 96 well plates and the amount of bound ligand measured on a Packard TopCount using OptiPlates (Packard). Nonspecific binding was determined in the presence of 10^−4 M unlabelled compound. Dose response curves were done in triplicates within a range of concentration from 10^−10 M to 10^−4 M.

mouse PPARγ [2] = target: T1, mouse PPARγ; assay: Luciferase transcriptional reporter gene assay, pFA-PPARγ-LBD in BHK21 cells; assay type: cell-based; parameters: expressed in transfected cells; host or cells: BHK21 (ATCC CCL10); settings: Gal4-PPARγ-LBD
Description: as §1
(§5) Luciferase Transcriptional Reporter Gene Assays
(§6) Baby hamster kidney cells (BHK21 ATCC CCL10) were grown in DMEM medium containing 10% FBS at 37° C. in a […] atmosphere. Cells were seeded in 6 well plates at a density of 10^5 Cells/well and then transiently batch-transfected with either the pFA-PPARγ-LBD or pFA-PPARα-LBD expression plasmids plus the pFR-luc reporter plasmid and an expression plasmid encoding the secretable form of alkaline phosphatase (SEAP) as a normalization control. […] Six hours following transfection, the cells were harvested by trypsinization and seeded in 96 well plates at a density of 10^4 cells/well. After 24 hours to allow attachment of cells, the medium was removed and replaced with 100 ul of phenol red-free medium containing the test substances or control ligands (final. 0.1% DMSO). Following incubation of the cells for 24 hours with substances, 50 ul of the supernatant was recovered and analyzed for SEAP activity (Roche Molecular Biochemicals). The remainder of the supernatant was discarded, 50 ul PBS was added per well followed by one volume of Luciferase Constant-Light Reagent (Roche Molecular Biochemicals) to lyse the cells and initiate the luciferase reaction. Luminescence for both SEAP and luciferase was measured in a Packard TopCount. Luciferase activity was normalized to the SEAP control and transcriptional activation in the presence of a test substance was expressed as fold-activation over cells incubated in the absence of the substance. EC50 values were calculated using the XLfit program (ID Business Solutions Ltd. UK).

human PPARα [3] = target: T2, human PPARα (Homo sapiens, UniProt Q07869); assay: PPARα radioligand binding assay (GST-PPARα-LBD fusion protein); parameters: made in house; host or cells: E. coli BL21(pLysS)
T2 sequence (Q07869 167-468 limits assumed): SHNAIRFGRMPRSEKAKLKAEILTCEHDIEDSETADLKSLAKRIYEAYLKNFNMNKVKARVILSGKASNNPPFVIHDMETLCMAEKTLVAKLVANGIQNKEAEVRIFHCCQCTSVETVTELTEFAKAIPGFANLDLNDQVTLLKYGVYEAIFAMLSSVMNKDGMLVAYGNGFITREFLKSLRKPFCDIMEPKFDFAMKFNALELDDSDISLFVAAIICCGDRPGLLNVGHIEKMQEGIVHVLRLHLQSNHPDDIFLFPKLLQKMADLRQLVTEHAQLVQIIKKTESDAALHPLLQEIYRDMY
Description: as §1, §2, §3
PPARα receptor binding was assayed in TKE10 (10 mM Tris-HCl, pH 8, 50 mM KCl, 2 mM EDTA, […] fatty acid free BSA and 10 mM DTT). For each 96 well 2.4 ug equivalent of GST-PPARα-LBD fusion protein and radioligand, e.g. 40000 dpm 2(S)-(2-benzoyl-phenylamino)-3-{4-[1,1-ditritio-2-(5-methyl-2-phenyl-oxazol-4-yl)-ethoxy]-phenyl}-propionic acid, were incubated in 100 ul volume at RT for 2 hrs. Bound ligand was removed from unbound ligand by solid phase separation using MultiScreen plates (Millipore) filled with 80 ul of SG25 according to the manufacturer's recommendations.
as §4

human PPARα [4] = target: T2, human PPARα; assay: Luciferase transcriptional reporter gene assay, pFA-PPARα-LBD in BHK21 cells; assay type: cell-based; settings: Gal4-PPARα-LBD
Description: as §1, §5, §6

| IC50 (mouse PPARγ [1]) | EC50 (mouse PPARγ [2]) | IC50 (human PPARα [3]) | EC50 (human PPARα [4]) | SMILES |
| --- | --- | --- | --- | --- |
| 180 nM | 130 nM | 30 nM | 80 nM | CCO[C@@H](Cc1ccc2c(ccn2Cc2nc(-c3ccc(C(F)(F)F)cc3)oc2C)c1)C(=O)O [Example 18, (S)-2-Ethoxy-3-{1-[5-methyl-2-(4-trifluoromethyl-phenyl)-oxazol-4-ylmethyl]-1H-indol-5-yl}-propionic Acid] |
| 1410 nM | 2700 nM | 1640 nM | 5240 nM | CCOC(Cc1ccc2c(c1)cc(C)n2Cc1csc(-c2ccccc2)n1)C(=O)O (racemic) [Example 44, Rac-2-Ethoxy-3-[2-methyl-1-(2-phenyl-thiazol-4-ylmethyl)-1H-indol-5-yl]-propionic Acid] |
|  |  | 30 nM | 30 nM | CCO[C@@H](Cc1ccc2c(ccn2Cc2nc(-c3cc(OC)cc(OC)c3)oc2C)c1)C(=O)O [Example 21, (S)-3-{1-[2-(3,5-Dimethoxy-phenyl)-5-methyl-oxazol-4-ylmethyl]-1H-indol-5-yl}-2-ethoxy-propionic Acid] |
| 50 nM | 50 nM | 120 nM | 60 nM | CCO[C@@H](Cc1ccc2c(ccn2Cc2nc(-c3ccc(F)c(C)c3)oc2C)c1)C(=O)O [Example 25, (S)-2-Ethoxy-3-{1-[2-(4-fluoro-3-methyl-phenyl)-5-methyl-oxazol-4-ylmethyl]-1H-indol-5-yl}-propionic Acid] |
| 400 nM | 560 nM | 280 nM | 190 nM | CCO[C@@H](Cc1ccc2c(ccn2Cc2nc(-c3ccccc3OC)oc2C)c1)C(=O)O [Example 8, (S)-2-Ethoxy-3-{1-[2-(2-methoxy-phenyl)-5-methyl-oxazol-4-ylmethyl]-1H-indol-5-yl}-propionic Acid] |
| 110 nM | 20 nM | 60 nM | 470 nM | CCOC(Cc1ccc2c(c1)c(C)cn2Cc1nc(-c2ccc(F)c(C)c2)oc1C)C(=O)O (racemic) [Example 39, Rac-2-Ethoxy-3-{1-[2-(4-fluoro-3-methyl-phenyl)-5-methyl-oxazol-4-ylmethyl]-3-methyl-1H-indol-5-yl}-propionic Acid] |
|  |  | 240 nM | 1520 nM | CCO[C@@H](Cc1ccc2c(ccn2Cc2nc(-c3ccccc3Cl)oc2C)c1)C(=O)O [Example 5, (S)-3-{1-[2-(2-Chloro-phenyl)-5-methyl-oxazol-4-ylmethyl]-1H-indol-5-yl}-2-ethoxy-propionic Acid] |

— patent US6890947B2, “Indolyl derivatives” (Hoffmann-La Roche Inc., priority 2002, dated 2005)
